Measured values from article PMC4667271, “Discovery of a Novel Inhibitor of the Protein Tyrosine Phosphatase Shp2” (Scientific Reports, 2015).

Tests used:
[1] = system: ERK1/2 activation in HEK293T cells expressing H-RasV12; assay: RasV12-induced ERK1/2 activation in transfected HEK293T; format: cell-based, human; details: Fumos 20 μM or U0126 10 μM, 24 h
Description: DMSO treatment as control. […] (c) Fumos inhibits EGF-induced Ras activation.
HEK293T, MDA-MB-231and HeLa cell lines were obtained from CRC/PUMC. Cell lines were maintained in Dulbecco’s modified Eagle’s medium supplemented with 10% fetal bovine serum. Transfections were performed in 6-well plates according to manufacturer (Invitrogen Lipofectamine LTX).Briefly, for transient transfection of HEK293T cells, subconfluent cells in 6-well plates were incubated with 2 ml of Dulbecco’s modified Eagle’s medium containing 2.5 μg of total DNA and 7.5 μl of each Lipofectamine and Plus reagent (Invitrogen) and then serum-starved in DMEM/0.1% bovine serum albumin for 18 h. After Fumos treatment for 24 h, cells were stimulated for 5 min with 20 ng/ml EGF.
After centrifugation, the supernatant was collected.

[2] = target: T1, full-length Shp2 (Shp2 FL) (Homo sapiens, UniProt Q06124); assay: in vitro PTP assay (pNPP), full-length Shp2; format: biochemical; details: full-length Shp2 (Shp2 FL)
T1 sequence (Q06124 1-593): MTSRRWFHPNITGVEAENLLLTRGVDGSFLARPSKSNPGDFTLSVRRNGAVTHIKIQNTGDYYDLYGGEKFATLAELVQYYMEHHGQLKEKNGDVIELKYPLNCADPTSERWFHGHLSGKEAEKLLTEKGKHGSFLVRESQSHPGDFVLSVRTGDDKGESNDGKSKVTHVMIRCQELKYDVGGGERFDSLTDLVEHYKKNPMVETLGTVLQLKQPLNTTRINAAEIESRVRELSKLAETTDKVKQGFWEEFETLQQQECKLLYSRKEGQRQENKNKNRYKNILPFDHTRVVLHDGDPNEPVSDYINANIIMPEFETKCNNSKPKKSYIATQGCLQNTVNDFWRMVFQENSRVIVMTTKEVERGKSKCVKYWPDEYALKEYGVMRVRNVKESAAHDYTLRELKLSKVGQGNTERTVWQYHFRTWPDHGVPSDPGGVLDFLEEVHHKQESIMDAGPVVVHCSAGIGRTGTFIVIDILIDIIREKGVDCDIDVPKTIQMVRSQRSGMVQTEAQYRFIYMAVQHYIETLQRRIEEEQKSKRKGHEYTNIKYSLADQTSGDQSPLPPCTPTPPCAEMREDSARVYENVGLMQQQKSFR
Description: (§1) Plasmids for expression of His-tag fusion proteins of human PTP were constructed in PET-28a by PCR subcloning techniques. The constructions contain only the PTP domain except Full-length Shp2. Full-length Shp2 containing Tyr279-to-Ala mutant was generated by PCR-based mutagenesis. All constructs were verified by DNA sequencing. PTP-His fusion proteins were expressed in Escherichia coli BL21 and lysed in the buffer (50 mM NaH2PO4, 300 mM NaCl, 250 mM imidazole, 1 mM dithiothreitol plus 5% glycerol), purified with Ni-NTA Magnetic Agarose Beads (Qiagen). The His-tag recombinant purification protocol was carried out according to the purification under native conditions of the QIAexpress System.
(§2) The assay was set in wells of 96-well plate with a final volume of 100 μl of reaction mixture containing 10 mM of NaAc-HAc, 1 mM of ethylene diamine tetraacetic acid, 1 mM of DL-dithiothreitol and 2% of dimethyl sulfoxide, pH 5.5. Activity of the enzyme was assayed by incubating recombinant PTP protein or mutant PTP with various concentrations of Fumos in the mixture at 37 °C for 30 min. Absorbance at 405 nm was detected immediately after addition of varied concentrations of substrate, p-nitrophenyl phosphate (pNPP) to each corresponding well.

[3] = target: T2, Shp2 PTP domain (Homo sapiens, UniProt Q06124); assay: in vitro PTP assay (pNPP), Shp2 PTP domain; format: biochemical; details: Shp2 PTP domain; pNPP; mean ± S.E.M., triplicate; read-out: IC50
T2 sequence (Q06124 247-517 limits assumed): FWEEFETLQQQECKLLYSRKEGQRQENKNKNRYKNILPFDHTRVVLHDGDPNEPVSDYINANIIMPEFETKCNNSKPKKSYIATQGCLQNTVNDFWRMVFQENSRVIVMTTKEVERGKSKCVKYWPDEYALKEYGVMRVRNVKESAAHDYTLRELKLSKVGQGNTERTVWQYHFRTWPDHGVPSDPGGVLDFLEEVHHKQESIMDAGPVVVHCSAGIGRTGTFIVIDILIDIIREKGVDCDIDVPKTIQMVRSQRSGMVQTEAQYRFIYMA
Description: as §1, §2

N#CC(=C(/N)Sc1ccccc1N)/C(C#N)=C(/N)Sc1ccccc1N [U0126, reference compound]
RasV12-induced ERK1/2 activation [1]: blocked ERK1/2 phosphorylation

[Na+].[Na+].[Na+].[O]=[V]([O-])([O-])[O-] [sodium orthovanadate, reference compound]
IC50 [2]: 630 µM
IC50 [3]: 620 µM
